We go through two compounds from US4406875A, “Radiolabeled amine compounds and their use” (Byk-Mallinckrodt CIL B.V., priority 1979, dated 1983).

By Km is commonly meant the concentration of substrate that gives half-maximal velocity.

One series relates to blood clot factor XIII. Kind of series: In vitro incorporation of the radiolabeled compound in casein by blood clot factor XIII (Km, Lineweaver-Burke plot). The format is biochemical. The protocol: Incorporation of the radiolabeled compound produced in Example I in fibrin by means of the blood clot factor XIII was investigated in vitro in the following manner:
To about 400 ul of a physiolgical salt solution containing 10 units of Factor XIII per ml, the following solutions were successively added; (a) about 500 ul of 0.5 molar solution of cystein in a buffer solution of tris(hydroxymethyl)aminomethane having a pH of 7.4, (b) about 100 ul of a buffer solution of tris (hydroxymethyl) aminomethane having a pH of about 7.4 and in which about 250 units of thrombine per ml had been dissolved, (c) about 1200 ul of a buffer solution of tris(hydroxymethyl) aminomethane, (d) about 50 ul of 0.4 molar solution of calcium chloride in water, and (e) about 200 ul of 5% solution of casein in water. […]
After incubation of the test solutions at about 37° C. for about 15 minutes, the reaction was discontinued by the addition of about 200 ul of a 1 molar solution of monoidoacetic acid which has been brought to a pH of about 7.4 by a sodium hydroxide solution. […] The radioactivity in the high-molecular fraction was then measured to determine if the radiolabeled sulfonamide compound had indeed been incorporated into the casein. […]

The next series relates to fibrin. Kind of series: Incorporation of the radiolabeled compound into a fibrin clot (human fibrinogen, Factor XIII, human thrombin). It is filed as biochemical. To be noted: incubated about three and a half hours at about 37° C.; clot washed three times. The method, then: The radiolabeled amine compound N-(5-aminopentyl)-5-iodonaphthalenesulfonamide,I-125 is tested for its ability to be incorporated into fibrin.
The following solutions are mixed in a polystyrene test tube; (a) about 1 ml of a solution containing about 5 mg/ml of human fibrinogen (about 1.5×10^-5 M) and a tris-HCl buffer in a concentration of about 5×10^-3 M, the solution having a pH of about 7.4, (b) about 0.1 ml of a saline solution containing about 4×10^-2 units of blood Factor XIII, (c) about 0.1 ml of a 0.05 M cysteine solution having a pH of about 7.4, and (d) about 0.1 ml of a solution containing the N-(5-aminopentyl)-5-iodonaphthalenesulfonamide,I-125 compound in a concentration of about 2.3×10^-5 mmole and a radioactivity of about 1 μCi. Thereafter, about 0.2 ml of solution of about 0.05 M tris buffer and about 0.025 M CaCl2 which contains about 10 NIH units of human thrombin and has a pH of about 7.4 is added.
The resultant mixture is then incubated for about three and a half hours at about 37° C. whereupon a fibrin clot is formed. […] The radioactivity of the solution and the clot are then measured in a suitable detection apparatus. From these radioactivity measurements, it is determined that about 15% of the initial radioactivity is incorporated into the fibrin clot.

Series [1] is described as follows: Stability towards deiodination and tissue incorporation after intravenous administration to rabbits. The format is in vivo, New Zealand white rabbits. Particulars: rabbit. The protocol: The radiolabeled amine compound N-(5-aminopentyl)-5-iodonaphthalenesulfonamide,I-`125 is tested for stability towards deiodination and for tissue incorporation by administering the compound to rabbits.
Two test solutions each of about 0.5 mCi of the above compound (spec. activity of about 1 mCi/mg) in about 1.45 ml of a physiological saline solution are prepared. A test solution is then intravenously administered to two New Zealand white rabbits, each weighing about 3 kg.
A blood sample is then taken from each rabbit at 12, 24, 36 and 72 hour periods after administration. The radioactivity of about 1 g of blood from samples for each time period is then measured. The measurements indicate that the radioactivity in the blood decreases slowly and that at about 72 hours after administration, about 20% of the initial radioactivity is still present in the blood. Due to the relatively slow disappearance of the subject compound from the bloodstream, the compound is therefore available in the bloodstream for a prolonged period of time which thereby increases its suitability to become incorporated into an occurring thrombus.
At the end of the 72 hour period, the rabbits are sacrificed and thereafter, the thyroid, liver, kidneys, lung, stomach wall, parotid glands, brains, muscle and bone tissue are removed and portions are measured for radioactivity. The thyroid contains only about 0.05% of the injected dose per gram which thereby indicates the stability of the subject compound towards deiodination. […] The liver contains about 0.04% and the gall bladder contains about 0.1% of the injected dose while the kidneys and the urine both contain about 0.3% of the dose.

`NCCCCCNS(=O)(=O)c1cccc2c([131I])cccc12` [N-(5-aminopentyl)-5-iodonaphthalene-1-sulfonamide-I-131]: in the series with blood clot factor XIII (casein), the “incorporation in casein (in words)” value was “amply sufficient to be incorporated efficiently in casein”. Moreover, in the series on blood clot factor XIII (casein as acceptor, 37° C., 15 minutes, pH 7.4, Lineweaver-Burke plot from measured radioactivity), the Km came to 250 µM.
For the compound `NCCCCCNS(=O)(=O)c1cccc2c([125I])cccc12` [N-(5-aminopentyl)-5-iodonaphthalenesulfonamide,I-125], the “initial radioactivity incorporated into the fibrin clot” value in the series with fibrin is on record as “about 15%”. Besides, in series [1] (72 hours), the “radioactivity in gall bladder” value was “about 0.1 % of the injected dose”, the radioactivity in kidneys entry is reported as “about 0.3 % of the dose”, the radioactivity in liver entry is “about 0.04 % of the injected dose” and the radioactivity in urine result is “about 0.3 % of the dose”. Further, in series [1] (about 0.5 mCi, about 72 hours after administration), the “initial radioactivity still present in the blood” value is given as “about 20%”. In addition, the tissue uptake at 72 h in series [1] (thyroid, 72 hours, indicates stability towards deiodination, read-out: radioactivity in thyroid) was about 0.05 %ID/g.
